Laboratory results published in patent US12398154B2, “Azaquinazoline pan-KRas inhibitors” (Mirati Therapeutics, Inc., priority 2020, dated 2025).
pIC50: −log10 of the molar value.

Assays:
KRas G12V = KRas G12V (Homo sapiens, UniProt P01116, G12V); test: biochemical;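 also: KRas binding measured by TR-FRET displacement at room temperature, IC50 fitted from percent of control values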
Method: (§1) The ability of a compound to bind to KRas was measured using a TR-FRET displacement assay. […] After a 60-minute incubation at room temperature, the reaction was measured using a BMG LABTECH CLARIO star Plus via TR-FRET. […] The POC values were fit to a 4-parameter IC50 equation and the IC50 value reported.

KRas G12A = KRas G12A (Homo sapiens, UniProt P01116, G12A); test: biochemical;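 also: binding to KRas measured by TR-FRET displacement after one hour at room temperature, IC50 from a four-parameter fit of percent-of-control values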
KRas G12A, sequence (P01116 1-169 isoform P01116-2 G12A): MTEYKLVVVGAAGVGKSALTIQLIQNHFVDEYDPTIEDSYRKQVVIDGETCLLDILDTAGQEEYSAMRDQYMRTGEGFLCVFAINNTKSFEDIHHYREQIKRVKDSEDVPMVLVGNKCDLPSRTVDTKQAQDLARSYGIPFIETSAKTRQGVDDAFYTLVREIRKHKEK
Method: as §1

KRas G12C = KRas G12C (Homo sapiens, UniProt P01116, G12C); test: biochemical;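 also: binding to KRas assessed by TR-FRET displacement after one hour incubation at room temperature, potency fitted from percent-of-control values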
KRas G12C, sequence (P01116 1-169 isoform P01116-2 G12C): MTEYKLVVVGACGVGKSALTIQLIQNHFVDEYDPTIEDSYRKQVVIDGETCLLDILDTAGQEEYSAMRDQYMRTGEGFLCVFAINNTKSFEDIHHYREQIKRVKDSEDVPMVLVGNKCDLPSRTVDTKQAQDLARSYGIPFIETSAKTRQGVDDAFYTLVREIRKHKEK
Method: as §1

KRas WT = KRas WT (Homo sapiens, UniProt P01116); test: biochemical;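 also: binding to KRas read as TR-FRET displacement after a one-hour room-temperature incubation, IC50 derived from percent-of-control values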
KRas WT, sequence (P01116 1-169 isoform P01116-2): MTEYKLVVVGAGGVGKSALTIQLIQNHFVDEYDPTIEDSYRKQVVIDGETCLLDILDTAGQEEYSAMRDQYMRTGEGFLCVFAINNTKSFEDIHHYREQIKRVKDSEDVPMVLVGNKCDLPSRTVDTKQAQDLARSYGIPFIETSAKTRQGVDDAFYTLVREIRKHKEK
Method: as §1

KRas G12S = KRas G12S (Homo sapiens, UniProt P01116, G12S); test: biochemical;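 also: TR-FRET displacement binding to KRas, read after one hour incubation at room temperature, IC50 from four-parameter fit of percent of control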
KRas G12S, sequence (P01116 1-169 isoform P01116-2 G12S): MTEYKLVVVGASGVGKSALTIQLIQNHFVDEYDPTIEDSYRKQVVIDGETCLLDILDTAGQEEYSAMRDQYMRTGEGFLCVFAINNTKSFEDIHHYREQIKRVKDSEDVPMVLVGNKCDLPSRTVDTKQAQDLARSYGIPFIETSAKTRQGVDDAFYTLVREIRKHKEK
Method: as §1

KRas G12D = KRas G12D (Homo sapiens, UniProt P01116, G12D); test: biochemical;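 also: TR-FRET displacement binding assay on KRas, read after a one-hour incubation at room temperature, IC50 fitted from percent-of-control values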
KRas G12D, sequence (P01116 1-169 isoform P01116-2 G12D): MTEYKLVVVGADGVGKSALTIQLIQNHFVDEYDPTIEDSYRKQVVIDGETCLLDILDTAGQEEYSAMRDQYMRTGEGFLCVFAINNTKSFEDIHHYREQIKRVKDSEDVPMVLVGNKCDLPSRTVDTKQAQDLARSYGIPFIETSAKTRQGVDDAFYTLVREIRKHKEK
Method: as §1

KRas G12R = KRas G12R (Homo sapiens, UniProt P01116, G12R); test: biochemical;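 also: TR-FRET displacement assay of compound binding to KRas, read after one hour at room temperature, potency from a four-parameter fit of percent-of-control values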
KRas G12R, sequence (P01116 1-169 isoform P01116-2 G12R): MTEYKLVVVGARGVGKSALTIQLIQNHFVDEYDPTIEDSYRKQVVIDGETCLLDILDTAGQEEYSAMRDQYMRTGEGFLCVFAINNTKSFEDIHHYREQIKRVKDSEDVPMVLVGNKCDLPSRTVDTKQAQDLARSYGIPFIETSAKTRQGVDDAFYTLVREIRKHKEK
Method: as §1

KRas Q61H = molecular target: T1, KRas Q61H (Homo sapiens, UniProt P01116, Q61H); test: KRas binding assay (TR-FRET displacement);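 also: TR-FRET signal read after one hour at room temperature, IC50 derived by four-parameter fitting of percent-of-control values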
T1 construct: Biotinylated KRas (corresponding to amino acids 1-169, produced at Accelegan Inc.); biotin (biotinylated); purchased Accelegan Inc
T1 sequence (P01116 1-169 isoform P01116-2 Q61H): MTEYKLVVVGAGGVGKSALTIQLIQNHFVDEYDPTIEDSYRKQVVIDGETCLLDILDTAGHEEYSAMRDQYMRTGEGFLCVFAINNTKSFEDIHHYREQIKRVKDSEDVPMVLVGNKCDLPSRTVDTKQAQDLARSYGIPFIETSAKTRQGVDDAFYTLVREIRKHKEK
Method: as §1

KRas G13D = molecular target: T2, KRas G13D (Homo sapiens, UniProt P01116, G13D); test: KRas binding assay (TR-FRET displacement);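 also: One-hour room temperature incubation before TR-FRET reading, IC50 from a four-parameter curve fit to percent-of-control data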
T2 construct: Biotinylated KRas (corresponding to amino acids 1-169, produced at Accelegan Inc.); biotin (biotinylated); purchased Accelegan Inc
T2 sequence (P01116 1-169 isoform P01116-2 G13D): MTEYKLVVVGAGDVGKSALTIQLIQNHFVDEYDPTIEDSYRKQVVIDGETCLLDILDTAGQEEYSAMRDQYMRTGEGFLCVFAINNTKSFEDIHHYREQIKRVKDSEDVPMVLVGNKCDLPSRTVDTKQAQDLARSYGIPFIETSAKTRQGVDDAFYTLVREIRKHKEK
Method: as §1

KRas G12V, sequence (P01116 1-169 isoform P01116-2 G12V): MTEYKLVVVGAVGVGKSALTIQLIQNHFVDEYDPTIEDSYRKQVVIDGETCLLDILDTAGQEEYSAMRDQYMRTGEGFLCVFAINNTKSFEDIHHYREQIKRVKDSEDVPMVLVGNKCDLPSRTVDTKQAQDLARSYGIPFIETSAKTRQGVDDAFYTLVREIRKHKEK

Row | Structure (SMILES) | pIC50 (KRas G12V) | pIC50 (KRas G12A) | pIC50 (KRas G12C) | pIC50 (KRas WT) | pIC50 (KRas G12S) | pIC50 (KRas G12D) | pIC50 (KRas G12R) | IC50 (KRas Q61H) [nM] | IC50 (KRas G13D) [nM]
1 | O=C1CC(CNc2nc(OCC34CCCN3CCC4)nc3c(F)c(-c4cccc5cccc(F)c45)ncc23)C(=O)N1 (stereo not drawn) [Example 236, 3-(((8-fluoro-7-(8-fluoronaphthalen-1-yl)-2-((hexahydro-1H-pyrrolizin-7a-yl)methoxy)pyrido[4,3-d]pyrimidin-4-yl)amino)methyl)pyrrolidine-2,5-dione] | 6.21 | 5.47 | 5.69 | 5.46 | 6.05 | 5.63 | 5.47 | 4440 | 2460
2 | CNS(=O)(=O)C1CCCN(c2nc(OCC34CCCN3CCC4)nc3c(F)c(-c4cccc5cccc(F)c45)ncc23)C1 (stereo not drawn) [Example 237, 1-(8-fluoro-7-(8-fluoronaphthalen-1-yl)-2-((hexahydro-1H-pyrrolizin-7a-yl)methoxy)pyrido[4,3-d]pyrimidin-4-yl)-N-methylpiperidine-3-sulfonamide] | 5.12 | 5.27 | 5.12 | 5.36 | 5.05 | 5.02 | 5.01 | 6380 | 8290
3 | O=S1(=O)CCCN1C1CCCN(c2nc(OCC34CCCN3CCC4)nc3c(F)c(-c4cccc5cccc(F)c45)ncc23)C1 (stereo not drawn) [Example 239, 2-(1-(8-fluoro-7-(8-fluoronaphthalen-1-yl)-2-((hexahydro-1H-pyrrolizin-7a-yl)methoxy)pyrido[4,3-d]pyrimidin-4-yl)piperidin-3-yl)isothiazolidine 1,1-dioxide] | 5.31 | 5.70 | 5.79 | 5.74 | 5.66 | 5.06 | 5.32 | 2670 | 1640
4 | NS(=O)(=O)NC1CCCN(c2nc(OCC34CCCN3CCC4)nc3c(F)c(-c4cccc5cccc(F)c45)ncc23)C1 (stereo not drawn) [Example 240, 8-fluoro-7-(8-fluoronaphthalen-1-yl)-2-(1,2,3,5,6,7-hexahydropyrrolizin-8-ylmethoxy)-4-[3-(sulfamoylamino)piperidin-1-yl]pyrido[4,3-d]pyrimidine] | 5.81 | 6.23 | 6.22 | 6.32 | 6.31 | 5.94 | 6.11 | 498 | 350
5 | O=CNC1CCCN(c2nc(OCC34CCCN3CCC4)nc3c(F)c(-c4cccc5cccc(F)c45)ncc23)C1 (stereo not drawn) [Example 242, N-(1-(8-fluoro-7-(8-fluoronaphthalen-1-yl)-2-((hexahydro-1H-pyrrolizin-7a-yl)methoxy)pyrido[4,3-d]pyrimidin-4-yl)piperidin-3-yl)formamide] | 5.12 | 5.09 | 5.16 | 4.96 | 5.21 | 5.10 | 4.89 | 13600 | 7860
6 | NC(=O)NC1CCN(c2nc(OCC34CCCN3CCC4)nc3c(F)c(-c4cccc5cccc(F)c45)ncc23)CC1 [Example 243, 1-(1-(8-fluoro-7-(8-fluoronaphthalen-1-yl)-2-((hexahydro-1H-pyrrolizin-7a-yl)methoxy)pyrido[4,3-d]pyrimidin-4-yl)piperidin-4-yl)urea] | 5.66 | 5.98 | 5.94 | 5.48 | 5.74 | 4.60 | 5.98 | 3580 | 2960
7 | O=CNC1CCN(c2nc(OCC34CCCN3CCC4)nc3c(F)c(-c4cccc5cccc(F)c45)ncc23)CC1 [Example 244, N-(1-(8-fluoro-7-(8-fluoronaphthalen-1-yl)-2-((hexahydro-1H-pyrrolizin-7a-yl)methoxy)pyrido[4,3-d]pyrimidin-4-yl)piperidin-4-yl)formamide] | 5.45 | 5.73 | 5.55 | 5.29 | 5.51 | 4.74 | 5.51 | 5080 | 4860
8 | O=S1(=O)NCCC2(CCCN(c3nc(OCC45CCCN4CCC5)nc4c(F)c(-c5cccc6cccc(F)c56)ncc34)C2)N1 (stereo not drawn) [Example 247, 8-(8-fluoro-7-(8-fluoronaphthalen-1-yl)-2-((hexahydro-1H-pyrrolizin-7a-yl)methoxy)pyrido[4,3-d]pyrimidin-4-yl)-2-thia-1,3,8-triazaspiro[5.5]undecane 2,2-dioxide] | 5.74 | 5.68 | 5.57 | 5.80 | 5.67 | 6.37 | 5.59 | 2060 | 1180
9 | NS(=O)(=O)CC1CN(c2nc(OCC34CCCN3CCC4)nc3c(F)c(-c4cccc5cccc(F)c45)ncc23)CCO1 (stereo not drawn) [Example 249, 1-(4-(8-fluoro-7-(8-fluoronaphthalen-1-yl)-2-((tetrahydro-1H-pyrrolizin-7a(5H)-yl)methoxy)pyrido[4,3-d]pyrimidin-4-yl)morpholin-2-yl)methanesulfonamide] | 5.89 | 6.01 | 6.01 | 5.97 | 6.13 | 5.10 | 6.37 | 808 | 1280
10 | CS(=O)(=O)C1CCCCN(c2nc(OCC34CCCN3CCC4)nc3c(F)c(-c4cccc5cccc(F)c45)ncc23)C1 (stereo not drawn) [Example 250, 8-fluoro-7-(8-fluoronaphthalen-1-yl)-2-((hexahydro-1H-pyrrolizin-7a-yl)methoxy)-4-(3-(methylsulfonyl)azepan-1-yl)pyrido[4,3-d]pyrimidine] | 5.47 | 5.41 | 5.17 | 5.45 | 5.42 | 5.14 | 5.40 | 5310 | 3510

Continued, values first:

Row | pIC50 (KRas G12V) | pIC50 (KRas G12A) | pIC50 (KRas G12C) | pIC50 (KRas WT) | pIC50 (KRas G12S) | pIC50 (KRas G12D) | pIC50 (KRas G12R) | IC50 (KRas Q61H) [nM] | IC50 (KRas G13D) [nM] | Structure (SMILES)
11 | 5.41 | 5.21 | 5.19 | 5.42 | 5.24 | 5.17 | 4.84 | 6250 | 3780 | CS(=O)(=O)C1CCCCCN(c2nc(OCC34CCCN3CCC4)nc3c(F)c(-c4cccc5cccc(F)c45)ncc23)C1 (stereo not drawn) [Example 251, 8-fluoro-7-(8-fluoronaphthalen-1-yl)-2-((hexahydro-1H-pyrrolizin-7a-yl)methoxy)-4-(3-(methylsulfonyl)azocan-1-yl)pyrido[4,3-d]pyrimidine]
12 | 7.77 | 8.30 | 7.77 | 8.15 | 8.10 | 7.96 | 7.57 | 9 | 6 | O=S1(=O)NCC2(CCCN(c3nc(OCC45CCCN4CCC5)nc4c(F)c(-c5cccc6cccc(F)c56)ncc34)C2)N1 (stereo not drawn) [Example 252, 7-(8-fluoro-7-(8-fluoronaphthalen-1-yl)-2-((tetrahydro-1H-pyrrolizin-7a(5H)-yl)methoxy)pyrido[4,3-d]pyrimidin-4-yl)-2-thia-1,3,7-triazaspiro[4.5]decane 2,2-dioxide]
13 | 5.36 | 5.52 | 5.62 | 5.22 | 5.45 | 4.17 | 5.39 | 7720 | 14100 | Fc1c(-c2cccc3cccc(F)c23)ncc2c(N3CC(n4cncn4)C3)nc(OCC34CCCN3CCC4)nc12 [Example 253, 4-(3-(1H-1,2,4-triazol-1-yl)azetidin-1-yl)-8-fluoro-7-(8-fluoronaphthalen-1-yl)-2-((hexahydro-1H-pyrrolizin-7a-yl)methoxy)pyrido[4,3-d]pyrimidine]
14 | 5.34 | 5.33 | 5.39 | 5.39 | 5.28 | 5.62 | 5.09 | 6020 | 3800 | CN(C)CC1(COc2nc(N3CCCC(C)(O)C3)c3cnc(-c4cccc5cccc(F)c45)c(F)c3n2)CC1 (stereo not drawn) [Example 256, 1-(2-((1-((dimethylamino)methyl)cyclopropyl)methoxy)-8-fluoro-7-(8-fluoronaphthalen-1-yl)pyrido[4,3-d]pyrimidin-4-yl)-3-methylpiperidin-3-ol]
15 | 5.42 | 5.26 | 5.40 | 5.40 | 5.28 | 5.61 | 5.16 | 6030 | 3960 | CC1(O)CCCN(c2nc(OCC3(CN4CCCC4)CC3)nc3c(F)c(-c4cccc5cccc(F)c45)ncc23)C1 (stereo not drawn) [Example 257, 1-(8-fluoro-7-(8-fluoronaphthalen-1-yl)-2-((1-(pyrrolidin-1-ylmethyl)cyclopropyl)methoxy)pyrido[4,3-d]pyrimidin-4-yl)-3-methylpiperidin-3-ol]
16 | 6.07 | 5.68 | 5.86 | 5.49 | 5.99 | 6.49 | 5.93 | 4610 | 4380 | NC(=O)c1cc2n(n1)CCCN(c1nc(OCC34CCCN3CCC4)nc3c(F)c(-c4cccc5cccc(F)c45)ncc13)C2 [Example 258, 5-(8-fluoro-7-(8-fluoronaphthalen-1-yl)-2-((hexahydro-1H-pyrrolizin-7a-yl)methoxy)pyrido[4,3-d]pyrimidin-4-yl)-5,6,7,8-tetrahydro-4H-pyrazolo[1,5-a][1,4]diazepine-2-carboxamide]
